Data: paper PMC10987949, “Inhibition of HIV-1 release by ADAM metalloproteinase inhibitors” (Frontiers in Microbiology, 2024)
Entries after “also recorded” stand apart in the source; their conditions may differ. Where a SMILES comes first, the peptide text is derived from it. [ ]: non-standard residue; d: D form. The star is where a group is joined. Sta = CC(C)C[C@H](N)[C@@H](O)CC(=O)O; Isovaleryl = CC(C)CC(=O)*; 4Abz = Nc1ccc(C(=O)O)cc1; Cbz = O=C(OCc1ccccc1)*; CH2Cl = ClC*; NHOH = ON*

Tested on: HIV-1BAL
Assay: HIV-1BAL infection of CD8-depleted PBMC, FACS (intracellular p24, CD4, CD62L)
Format: cell-based
Conditions: HIV-1BAL infected cells
Source text: The use of healthy human peripheral blood mononuclear cells (PBMC) is approved by the Department of Transfusion Medicine at the Clinical Center of National Institutes of Health. The use of PBMC from HIV-1 infected individuals for the study was approved under protocol #02-I-0202 by the Institutional Review Board (IRB) of National Institutes of Health with written informed consent from all donors. Peripheral blood mononuclear cells (PBMCs) from anonymous healthy donors were isolated by Ficoll-Paque gradient, and cultured in RPMI 1640 supplemented with 10% FBS, 1%Penicillin/streptomycin, 1% HEPES buffer and 20 U/mL IL-2 (culture media); and stimulated with 0.2 μg/mL anti-CD3 antibody (okt3) for 2 days. CD8^+ T cells were depleted prior to infection using the Stemcell CD8 positive selection kit according to manufacturer’s instructions. CD8-depleted PBMCs were plated at 2×10^6 cells/ml in 48-well plates in 1 mL culture media with various inhibitors for 60 min prior to the addition of ~80 TCID50 HIV-1BAL or HIV-1LAI. Inhibitors were replenished during media change every 3 days. The infections were proceeded with or without inhibitors for 6 days or otherwise specified number of days and then analyzed by FACS staining using fluorescent labeled CD4-BV510, CD62L-APC and CD3-PEC7 antibodies (BD Biosciences). Cells were then washed and permeabilized with CytoFix/CytoPerm (BD Biosciences) solution before intracellular staining for HIV p24 antigen using FITC conjugated anti-p24 antibody clone KC57 (Beckman Coulter, catalog 6604665). All assays were performed with cell viabilities >80%. Replication competent HIV-1 viruses were obtained from the NIH AIDS Reagent Program^4, and expanded by infecting activated CD8-depleted PBMCs, and TCID50 was determined by p24 ELISA.

| Compound | accumulation of infected CD4−/CD62L− T cells (loss of CD62L) |
| --- | --- |
| CC(C)C[C@H](CC(=O)NO)C(=O)N[C@@H](Cc1ccc2ccccc2c1)C(=O)N[C@@H](C)C(N)=O [TAPI-0] | did not inhibit the accumulation |

Same assay, conditions: day 6; 0.5μM compounds

| Compound | p24 staining in HIV-1BAL infection of PBMC |
| --- | --- |
| C[C@@H]1CCO[C@H]2Cn3cc(C(=O)NCc4ccc(F)cc4F)c(=O)c(O)c3C(=O)N12 [Doultegravir] | no significant staining |

Same assay, conditions: day 7 post infection; compounds at 100 μM, GI254023X at 250 μM

| Compound | effect on HIV-1BAL infection (intracellular p24) |
| --- | --- |
| O=c1oc(Cl)c(Cl)c2ccccc12 [3,4-DCIC, 3,4-Dichloroisocouman] | did not enhance HIV-1 infection |
| CC(C)C[C@H](CC(=O)NO)C(=O)N[C@@H](Cc1ccc2ccccc2c1)C(=O)N[C@@H](C)C(N)=O [TAPI-0] | fail to significantly suppress the viral infections |

Tested on: CD62L shedding
Assay: Soluble CD62L ELISA, unstimulated PBMC
Format: cell-based, human
Conditions: 10 μM compound; non-stimulated cells; ELISA
Procedure: PBMC from de-identified healthy donors were obtained with informed consent from the Department of Transfusion Medicine, National Institutes of Health under Biological reagent Registry RD-14-IX-12 approved by NIH biological safety board. CD8-depleted PBMCs, either stimulated or non-stimulated with 10 μg/mL phytohaemagglutinin (PHA) or anti-CD3 antibody (with or without conjugated beads), were plated at 2×10^6 cells/ml in 48 well plates in RPMI 1640 + 10%FBS (R10) to a final volume of 1 mL in each well. IL-2 was added at a final concentration of 20 U/mL. CD3 antibody okt3 was used at ~0.2 μg/mL final concentration. […] Supernatants were collected and assessed using either the CD62L or TNF-α Duo Set ELISA kit according to manufacturer's instructions (R&D Systems, Inc.). The viability of cells treated with compounds was assessed by acridine orange / propidiom iodide (AO/PI Logosbio catalog F23001) staining using Luna-FL cell counter following the manufacture's instruction.^2 […] Supplemental Figure 1. CD62L shedding from unstimulated PBMC. A) Soluble CD62L in the supernatant of unstimulated PBMC was measured By ELISA (R&D systems, Inc) after 24 hour treatment in the presence of 10 μM of […]), aminopeptidase (AP) protease inhibitors, respectively, or their untreated controls. Statistics were calculated using unpaired parametric student t-test between individual treatment and DMSO control. […] B) Viability of PBMC treated with 10-500 μM of MMP inhibitors for 24hours. […] Untreated DMSO AEBSF 3,4-Dichloroisocouman Granzyme B Inhibitor II Granzyme B Inhibitor IV Aprotinin […] 3 4 CD62L shedding from unstimulated PBMC Soluble CD62L (ng/ml) Inhibitor Class […] GI254023X 10 GI254023X 100 […] GI254023X 1000 GW280264X 10 GW280264X 100 […] GW280264X 1000 Marimastat 10 Marimastat 100 Marimastat 250 […]

| Compound | Shedding inhibition Non-stim. |
| --- | --- |
| Cc1cc(CCC[C@H](CC(=O)NO)C(=O)N[C@H](C(=O)N[C@H](C)c2ccccc2)C(C)(C)C)ccc1-c1ccccc1 [UK-356618, (2R)-N1-[(1S)-2,2-Dimethyl-1-({[(1R)-1-phenylethyl]amino}carbonyl)propyl]-2-{3-[(3-methyl-4-phenyl)-phenyl]propyl}-(N4-hydroxy)butanediamide] | − (0% inhibition) |

Same assay, conditions: 100 μM compound; non-stimulated cells; ELISA

| Compound | Shedding inhibition Non-stim. |
| --- | --- |
| CCOCOC[C@H](C[C@H](C)C(=O)NO)NC(=O)c1ccc(Oc2ccccc2)cc1 [ONO-4817] | + (20–50) |

Tested on: CD62L shedding
Assay: Soluble CD62L ELISA, anti-CD3/PHA stimulated PBMC or CD4 T cells
Format: cell-based, human
Conditions: 10 μM compound; stimulated cells; ELISA
Procedure: PBMC from de-identified healthy donors were obtained with informed consent from the Department of Transfusion Medicine, National Institutes of Health under Biological reagent Registry RD-14-IX-12 approved by NIH biological safety board. […] IL-2 was added at a final concentration of 20 U/mL. CD3 antibody okt3 was used at ~0.2 μg/mL final concentration. […] Supernatants were collected and assessed using either the CD62L or TNF-α Duo Set ELISA kit according to manufacturer’s instructions (R&D Systems, Inc.). The viability of cells treated with compounds was assessed by acridine orange / propidiom iodide (AO/PI Logosbio catalog F23001) staining using Luna-FL cell counter following the manufacture’s instruction.^2

| Compound | Shedding inhibition Stimulated |
| --- | --- |
| O=c1oc(Cl)c(Cl)c2ccccc12 [3,4-DCIC, 3,4-Dichloroisocouman] | − (0% inhibition) |
| NCCc1ccc(S(=O)(=O)F)cc1 [AEBSF] | − (0% inhibition) |
| CC(C)(C)OC(=O)N[C@H]1[C@@H]2CNC[C@@H]21 [CP-101537, N-(1a,5a,6a)-3-Azabicyclo[3.1.0]hex-6-yl-carbamic acid 1,1-dimethylethyl ester] | − (0% inhibition) |
| CC(C)C[C@@H](NC(=O)[C@@H]1CCCN1C(=O)CNC(=O)c1ccc(N)cc1)C(=O)N[C@@H](C)C(=O)NO [Compound 4-m-GPDLA, 4-aminobenzoyl-Gly-Pro-D-Leu-ala hydroxamic acid] (H-[4Abz]GP[dL]A-{NHOH}) | − (0% inhibition) |
| CC(C)C[C@H](NC(=O)[C@H]1O[C@@H]1C(=O)O)C(=O)NCCCCN=C(N)N [Compound E64] | − (0% inhibition) |
| CC[C@H](C)[C@H](NC(C)=O)C(=O)N[C@@H](CCC(=O)O)C(=O)N[C@H](C(=O)N[C@H](C=O)CC(=O)O)[C@@H](C)O [GrzB II] (Ac-IETD-aldehyde) | − (0% inhibition) |
| CC[C@H](C)[C@H](NC(C)=O)C(=O)N[C@@H](CCC(=O)O)C(=O)N1CCC[C@H]1C(=O)N[C@H](C=O)CC(=O)O [GrzB IV] (Ac-IEPD-aldehyde) | − (0% inhibition) |
| C[C@H](NC(=O)OCc1ccccc1)C(=O)N[C@@H](C)C(=O)N[C@@H](CC(=O)O)C(=O)CCl [GrzB I] (Cbz-Ala-Ala-Asp-CH2Cl) | − (0% inhibition) |
| NC(=O)CI [Iodoacetamide] | − (0% inhibition) |
| COc1ccc(S(=O)(=O)N(CC(=O)NO)CC(C)C)cc1 [NNGH, N-Isobutyl-N-(4-methoxyphenylsulfonyl)glycyl hydroxamic acid] | − (0% inhibition) |
| O=S(=O)(F)Cc1ccccc1 [PMSF] | − (0% inhibition) |
| O=S(=O)(CC1CS1)c1ccc(Oc2ccccc2)cc1 (stereo not shown) [SB-3CT] | − (0% inhibition) |
| CC(C)C[C@H](CC(=O)NO)C(=O)N[C@@H](Cc1ccc2ccccc2c1)C(=O)N[C@@H](C)C(N)=O [TAPI-0] | ++ (>50%) |
| CC(C)C[C@H](CC(=O)NO)C(=O)N[C@@H](Cc1ccc2ccccc2c1)C(=O)N[C@@H](C)C(=O)NCCN [TAPI-1] | ++ (>50%) |
| CC(C)C[C@H](CC(=O)NO)C(=O)N[C@H](C(=O)N[C@@H](C)C(=O)NCCN)C(C)(C)C [TAPI-2] | ++ (>50%) |
| Cc1cc(CCC[C@H](CC(=O)NO)C(=O)N[C@H](C(=O)N[C@H](C)c2ccccc2)C(C)(C)C)ccc1-c1ccccc1 [UK-356618, (2R)-N1-[(1S)-2,2-Dimethyl-1-({[(1R)-1-phenylethyl]amino}carbonyl)propyl]-2-{3-[(3-methyl-4-phenyl)-phenyl]propyl}-(N4-hydroxy)butanediamide] | − (0% inhibition) |
| Aprotinin | − (0% inhibition) |
| Cystatin | − (0% inhibition) |

Same assay, conditions: 100 μM compound; stimulated cells; ELISA

| Compound | Shedding inhibition Stimulated |
| --- | --- |
| CCOCOC[C@H](C[C@H](C)C(=O)NO)NC(=O)c1ccc(Oc2ccccc2)cc1 [ONO-4817] | +/− (<20) |

Same assay, conditions: Homo sapiens; 10 μM compound; stimulated cells; ELISA

| Compound | inhibition at 10 µM [%] |
| --- | --- |
| CC(C)ON([C@@H](C(=O)NO)C(C)C)S(=O)(=O)c1ccc(-c2ccccc2)cc1 [ARP 101, (2R)-2-[([1,1′-Biphenyl]-4-ylsulfonyl)(1-methylethoxy)amino]-N-hydroxy-3-methyl-butanamide] | < 20 |
| CC(C)C[C@H](NC(=O)[C@@H](O)[C@H](N)Cc1ccccc1)C(=O)O [Bestatin] | 0 |
| CC(C)(NS(=O)(=O)c1ccc(Oc2ccc(F)cc2)cc1)C(=O)NO [CP-471474, 2-[[[4-(4-Fluorophenoxy)phenyl]sulfonyl]amino]-N-hydrox y-2-methylpropanamide] | 0 |
| OB(O)c1ccc2[nH]ccc2c1 [Compound 5-Indolylb, 5-indolylboronic acid] | 0 |
| CC1(c2ccccc2)NC(=O)NC1=O (stereo not shown) [Compound 5-m-5-p, 5-methyl-5-phenylhydantoin] | 0 |
| C[C@H]1c2cccc(O)c2C(=O)C2=C(O)[C@]3(O)C(=O)C(C(N)=O)=C(O)[C@@H](N(C)C)[C@@H]3[C@@H](O)[C@@H]21 [Doxycycline] | 0 |
| CC(=O)N[C@@H](CC(C)C)C(=O)N[C@@H](CC(C)C)C(=O)N[C@H](C=O)CCCNC(=N)N [Leupeptin] | 0 |
| CCCC(C)NC(=O)c1ccc(Cl)c(Cl)c1 (stereo not shown) [NSC405020, 3,4-Dichloro-N-(1-methylbutyl)-benzamide] | 0 |
| N=C(N)c1ccc2cc(OC(=O)c3ccc(N=C(N)N)cc3)ccc2c1 [Nafamostat] | 0 |
| CC(C)[C@H](NS(=O)(=O)c1ccc(-c2ccc(Br)cc2)cc1)C(=O)O [PD166793, (S)-2-(4′-Bromo-biphenyl-4-sulfonylamino)-3-methyl-butyric acid hydrate] | 0 |
| CC(C)CC(=O)N[C@H](C(=O)N[C@H](C(=O)N[C@@H](CC(C)C)[C@@H](O)CC(=O)N[C@@H](C)C(=O)N[C@@H](CC(C)C)[C@@H](O)CC(=O)O)C(C)C)C(C)C [Pepstatin A] (Isovaleryl-VV[Sta]A[Sta]-OH) | 0 |

Same assay, conditions: stimulated PBMC or CD4 T cells, ELISA

| Compound | effect on CD62L shedding / soluble CD62L |
| --- | --- |
| O=c1oc(Cl)c(Cl)c2ccccc12 [3,4-DCIC, 3,4-Dichloroisocouman] | significantly increased soluble CD62L concentration; also recorded: enhanced CD62L shedding |
| TAPI | suppressed CD62L shedding |

Same assay, conditions: titration of HAART compounds, concentration range tested

| Compound | effect on CD62L shedding from stimulated PBMC |
| --- | --- |
| Cc1ccnc2c1NC(=O)c1cccnc1N2C1CC1 [nevirapine] | did not inhibit CD62L shedding |
| Cc1nnc(C(=O)NC(C)(C)c2nc(C(=O)NCc3ccc(F)cc3)c(O)c(=O)n2C)o1 [raltegravir] | did not inhibit CD62L shedding |
